{
  "source": "paper PMC12993615",
  "about": "(The journal of pain, 2024)",
  "key": {"[1]": {"experiment": "Oral bioavailability / pharmacokinetics in rats", "assay_type": "in vivo", "conditions": "Sprague Dawley, rat, plasma, male rats", "description": "Following intravenous and oral administration, blood samples (ca .2 mL) were collected from the jugular vein. For IV group, blood samples were collected at .083, .25, .5, 1, 2, 4, 6, 8, 24 hours post-dose. For PO group, blood samples were collected at .25, .5, 1, 2, 4, 6, 8, 24 hours post-dose. Blood samples were collected into tubes containing the anticoagulant K2EDTA. Plasma samples were prepared by centrifugation and dispensed into 1.5 mL matrix tubes and stored in a freezer (−75 ± 1°C) prior to analysis."}, "[2]": {"molecular_target": "T1, CCK2 [cholecystokinin B receptor] (Homo sapiens, UniProt P32239)", "T1 sequence (P32239 1-447)": "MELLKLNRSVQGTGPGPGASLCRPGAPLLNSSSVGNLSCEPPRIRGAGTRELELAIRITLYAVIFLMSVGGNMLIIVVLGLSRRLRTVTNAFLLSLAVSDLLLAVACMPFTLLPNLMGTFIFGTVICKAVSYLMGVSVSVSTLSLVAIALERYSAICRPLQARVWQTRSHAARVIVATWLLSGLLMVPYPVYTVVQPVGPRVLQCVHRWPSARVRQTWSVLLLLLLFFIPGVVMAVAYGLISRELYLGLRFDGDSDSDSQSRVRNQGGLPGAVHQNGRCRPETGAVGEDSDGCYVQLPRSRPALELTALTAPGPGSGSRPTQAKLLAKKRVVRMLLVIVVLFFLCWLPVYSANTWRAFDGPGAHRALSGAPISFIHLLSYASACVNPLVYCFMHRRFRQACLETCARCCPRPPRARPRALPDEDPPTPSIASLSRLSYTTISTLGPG", "experiment": "Secondary pharmacology panel (87 targets)", "assay_type": "binding", "conditions": "test concentration 30 µM", "excerpt": "(§1) Findings were considered significant if ≥50% inhibition of ligand binding or ≥50% stimulation/inhibition were shown in biochemical assays. Those receptors with values ≥50% were further evaluated for binding and functional half-maximal inhibitory concentrations (IC50)."}, "cathepsin G": {"molecular_target": "T2, cathepsin G (Homo sapiens, UniProt P08311)", "T2 sequence (P08311 21-255)": "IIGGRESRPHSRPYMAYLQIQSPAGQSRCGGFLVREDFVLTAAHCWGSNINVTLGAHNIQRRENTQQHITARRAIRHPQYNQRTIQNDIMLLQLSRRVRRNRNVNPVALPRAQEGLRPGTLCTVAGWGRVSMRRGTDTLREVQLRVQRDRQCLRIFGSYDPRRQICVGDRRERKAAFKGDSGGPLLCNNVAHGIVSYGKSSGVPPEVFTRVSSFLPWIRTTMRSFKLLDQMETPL", "experiment": "Secondary pharmacology panel (87 targets)", "assay_type": "binding", "conditions": "test concentration 30 µM", "excerpt": "as §1"}, "in vivo": {"experiment": "in vivo", "conditions": "both sexes, beagle, dog, po, 500 mg/kg", "excerpt": "Examined parameters to assess toxicity included clinical observations, mortality and moribundity cheques, body weights, food consumption, electrocardiogram, TK, clinical chemistry, haematology, coagulation, urinalysis, gross pathology, organ weights, and histopathology."}, "[3]": {"system": "painful diabetic neuropathy", "conditions": "cited from earlier work"}, "FABP3": {"molecular_target": "FABP3 (Homo sapiens, UniProt P05413)", "sequence (P05413 whole entry, species assumed)": "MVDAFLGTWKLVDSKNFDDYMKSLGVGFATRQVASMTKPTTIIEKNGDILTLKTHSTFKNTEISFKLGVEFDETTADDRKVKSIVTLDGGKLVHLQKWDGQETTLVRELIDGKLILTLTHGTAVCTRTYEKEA", "experiment": "Fluorescence displacement binding assay (DAUDA probe)", "description": "Purified FABPs were incubated with 11-(dansylamino)undecanoic acid (DAUDA) (FABP3, FABP5) or 8-anilino-1-naphthalenesulfonic acid (ANS) (FABP7) in the presence or absence of FABP inhibitors (.01–200 μM) in the binding assay buffer. FABP4 binding was assessed using a commercially available kit (Cayman Chemical, Ann Arbor). In all cases, arachidonic acid (10 μM) was included to account for maximal probe displacement. Loss of fluorescence intensity was monitored with an F5 Filtermax Multi-Mode Microplate Reader (Molecular Devices, Sunnyvale) using the following excitation and emission wavelengths (DAUDA: ex./em.= 360/535 nm; ANS: ex./em. = 360/465 nm). Following background subtraction, the fluorescence intensity values were normalised and analyzed via a one-site binding model using the GraphPadPrism (version 9.2). Ki values were determined using the following equation: Ki= IC50/(1 + ([Probe]/Kd)."}, "[4]": {"system": "CCK1, CCK2, δ (DOP), cathepsin G", "experiment": "Subsequent functional assessment of secondary pharmacology hits", "assay_type": "biochemical", "excerpt": "as §1"}, "[5]": {"system": "oxaliplatin-induced mechanical allodynia", "experiment": "Acute dosing in established OIPN, von-Frey paw withdrawal threshold", "assay_type": "in vivo, male Sprague Dawley rats", "conditions": "for PWT response versus vehicle: 2 hours", "description": "OXA (Tocris Bioscience) was dissolved in 5% dextrose (Sigma-Aldrich) and administered intraperitoneally (IP) at a volume of 6 mL/kg. […] AM251 (CB1 antagonist; Tocris Bioscience), AM630 (CB2 antagonist; Tocris Bioscience), GW6471 (PPARα antagonist; Tocris Bioscience), and AMG9810 (TRPV1 antagonist; Tocris Bioscience) were dissolved in saline with 4% dimethyl sulfoxide and delivered IP. Male Sprague Dawley rats (150–210 g) were housed in groups of 4 in intra-ventilated Perspex home cages. Humidity, temperature (21 ± 1 °C), and lighting (light-dark cycle of 12:12 hours) were controlled and maintained in the home cages, with food and water available ad libitum. Rats acclimatised to the home cages for at least 1 week. All experiments were carried out according to the Animals (Scientific Procedures) Act, 1986 (U.K. Government Home Office). The study was performed under the Home Office project licence number PP0847012. OIPN was established with a single dose of OXA (10 mg/kg, IP). […] Tactile allodynia (primary outcome measure) was assessed using paw withdrawal threshold (PWT), a measure of pain sensitivity. PWT was evaluated using calibrated von-Frey monofilaments (Touch-Test Sensory Evaluator; Scientific Marketing Associates) applied to the plantar surface of the left hind paw. PWT was determined by increasing and decreasing stimulus intensity and estimated using Dixon’s up-down method.[38],[39] To acquire baseline readings, pain behaviour was assessed on 3 consecutive days (Days −3, −2, −1). The mean of Day −2 and Day −1 was considered the healthy baseline (HBL) prior to OIPN induction. On Days 5 and 6 after OXA injection, thresholds were reassessed. The mean of Days 5 and 6 was considered the neuropathic baseline (NPB). Animals were then ranked and randomised (based on a Latin square design) to treatment groups according to the percentage change of the mean thresholds observed in the NPB compared to the HBL. NPB expressed as a percentage change from HBL was calculated as follows (HBL-NPB)/HBL*100. All behavioural assessment was done by an experimenter blinded to the identity of the treatment. Separate people were responsible for dosing and assessment/data analysis."}},
  "data": [
    {"smiles": "COc1ccccc1[C@@H]1[C@H](C(=O)O)[C@@H](c2ccccc2OC)[C@H]1C(=O)OC1Cc2ccccc2C1", "note": "[ART26.12, (+)–3-Indan-2-yloxycarbonyl-2,4-bis(2-methoxyphenyl)cyclobutanecarboxylic acid]", "values": [
      {"measurement": "clearance", "setting": "[1]; IV 2 mg/kg", "result": 14, "unit": "mL/min/kg"},
      {"measurement": "half-life", "setting": "[1]; IV 2 mg/kg", "result": 156, "unit": "min"},
      {"measurement": "Vd", "setting": "[1]; IV 2 mg/kg, read-out: volume of distribution", "result": 1.3, "unit": "L/kg"},
      {"measurement": "Tmax", "setting": "[1]; PO 10 mg/kg", "result": "~0.5", "unit": "h"},
      {"measurement": "Tmax", "setting": "[1]; PO 300 mg/kg", "result": "~6.6", "unit": "h"},
      {"measurement": "bioavailability", "setting": "[1]; PO 300 mg/kg", "result": 163, "unit": "%"},
      {"measurement": "half-life", "setting": "[1]; PO 300 mg/kg", "result": 228, "unit": "min"},
      {"measurement": "bioavailability", "setting": "[1]; single oral dose 10 mg/kg", "result": 73, "unit": "%"},
      {"measurement": "binding to CCK2 in secondary pharmacology screening", "setting": "[2]", "result": "greater than 50%"},
      {"measurement": "binding to cathepsin G in secondary pharmacology screening", "setting": "cathepsin G", "result": "greater than 50%"},
      {"measurement": "NOAEL at 14 days", "setting": "in vivo", "result": 1000, "unit": "mg/kg/day"},
      {"measurement": "effect on established painful diabetic neuropathy", "setting": "[3]", "result": "treats established painful diabetic neuropathy"},
      {"measurement": "Ki", "setting": "FABP3", "result": "71.3 ± 2.4", "unit": "µM"},
      {"measurement": "functional assessment at the 4 off-targets", "setting": "[4]", "result": "not physiologically relevant"},
      {"measurement": "PWT response versus vehicle", "setting": "[5]; 100 mg/kg PO co-administered with AM630 (CB2 antagonist) 3 mg/kg IP", "result": "not significantly different to vehicle"},
      {"measurement": "PWT response versus vehicle", "setting": "[5]; 100 mg/kg PO co-administered with AMG9810 (TRPV1 antagonist) 3 mg/kg IP", "result": "not significantly different to vehicle"},
      {"measurement": "PWT response versus vehicle", "setting": "[5]; 100 mg/kg PO co-administered with GW6471 (PPARα antagonist) 4 mg/kg IP", "result": "not significantly different to vehicle"},
      {"measurement": "PWT compared to ART26.12 alone", "setting": "[5]; 100 mg/kg PO co-treated with AM251 (CB1 antagonist) 3 mg/kg IP, P < .05", "result": "significantly reduced PWT"},
      {"measurement": "duration of acute attenuation of mechanical allodynia", "setting": "[5]; established OIPN, acute oral dosing", "result": "up to 8 hours"},
      {"measurement": "PWT compared to vehicle", "setting": "[5]; established OIPN, 50 mg/kg (P < .05), 75 mg/kg (P < .05), 100 mg/kg (P < .001) PO, 30 minutes and 2 hours post-dose", "result": "significantly increased PWT"},
      {"measurement": "PWT time course after single dose", "setting": "[5]; established OIPN, 100 mg/kg PO, at 30 minutes, 2, 3, 4 and 8 hours", "result": "significantly increased"},
      {"measurement": "PWT compared to vehicle-alone", "setting": "[5]; mechanism study, 100 mg/kg PO, 30 minutes or 2 hours, P < .01", "result": "significantly increased PWT"}
    ]}
  ]
}
